In one test the test system is S. aureus. Put plainly: Total viable count (TVC) plate counts of spiked samples (T0/T2). Conditions: for TVC T2: 100 μL plated after 2 h at 37° C.; for TVC T0: 100 μL plated at time 0. The test is classed as cell-based. The method, then:
Test dilution(s) of organism was added to blood+antibiotic or blood only at 10 μL per mL of blood (sufficient prepared for experiment requirements). 100 μL plate count sample was taken (TO sample).
The inoculated samples were incubated at 37° C. (static) for 2-hour. 100 μL plate count sample was taken (T2 sample).
For the ‘rescue’ test, 5 mL of spiked blood+abx or blood only was treated with Momentum Capture Beads (Streptavidin-coated, −300 nm beads, Bio estapor, Merk Cat #BE-M 08/0.3) as below: • Momentum Capture Beads diluted in Detergent-free Microbial Binding Buffer (DMBB—Tris+NaCl)—50 μL beads:700 μL DMBB per clean-up • 750 μL of diluted beads added to 50 mL conical centrifuge tube • 5 mL of broth medium added to tube • 5 mL of spiked blood+abx or blood only added to tube • Incubate on ITL TherMix (Integrated Technologies Ltd. Kent, UK), 32.5° C./30 min/1000 rpm—ramped speed protocol • Magnetise on V&P magnet (V&P scientific Inc, CA, US) for 5 min then remove supernatant • Resuspend beads in 1 mL Detergent-free Wash Buffer (DWB—Tris+NaCl) off magnet and transfer to 2 mL Eppendorf flip-top tube on DynaMag-2 magnet (Thermo Fisher Scientific, Life Technologies Ltd. Paisley, UK) • Magnetise for 5 min then remove supernatant • Resuspend beads in 1 mL DWB off magnet then replace on DynaMag-2 magnet • Magnetise for 5 min then remove supernatant • Resuspend beads in 1 mL DWB, add to a fresh, unused blood culture bottle (BioMerieux SA culture bottle) containing standard blood culture growth medium using a vial adapter, and start incubation (adapter removed). • Blood culture bottles are incubated in the automated blood culture cabinet (BacT/ALERT BioMerieux) which records time to positivity. The “Flip” time is when a bottle turns positive as determined by the automated blood culture cabinet. • “Flip” time of each bottle is recorded. • Plate counts (Total Viable Count TVC) are recorded.
Day 2: Prepare ten-fold serial dilution of overnight culture in blood/broth as required • Antibiotic added to whole blood (defibrinated horse blood) at required level • Whole blood as no-antibiotic control • Test dilution(s) of organism added to blood+antibiotic or blood only at 10 μL per mL of blood (sufficient prepared for experiment requirements) • 100 μL plate count sample taken (TO sample) • 2-hour incubation at 37° C. (static), to mimic organism exposure to antimicrobials in the patient • 100 μL plate count sample taken (T2 sample) • 5 mL of spiked blood+abx or blood only added to blood culture bottle (using vial adapter) and incubation started (adapter removed) • 5 mL of spiked blood+abx or blood only (from same source) treated with Momentum Capture Beads as below: • 1. […]
Day 3: Plate counts recorded. […]

A further test relates to E. coli. Briefly: TVC viability of E. coli in whole blood with SPS over time. Type of test: cell-based. The method, then: 2×5 mL whole blood or BacTec PLUS aerobic blood broth (1:3 ratio) aliquoted for each sample-set (E. coli and NSC sample). Then SPS added as follows:
Then 5 μL of E. coli 1E-2 preculture added to each 5-mL specimen tube to recreate standard 1E-5 dilution sample
• 1.88 μL neat o/n in Nutrient Broth (NB) added to 3 mL NB; and incubated for 2 hours at 37° C., 500 rpm • After 2 hours, E. coli preculture diluted 10-fold in warm NB; and then 5 μL added to each 5 mL specimen tube (prepared as shown in test conditions) • Magnitor Test initiated immediately, and TVCs performed as detailed below.
• 100 μL on COL plates at Time Zero • Sample bijous, containing approximately 2 mL sample, left at room temperature (20.4° C.) on bench (static) • TVCs performed at time points shown in table: samples mixed thoroughly before plating

[1] abbreviates: S. aureus spike dil 10-3 in blood + Piperacillin 96 ug/ml.
[2] abbreviates: S. aureus spike dil 10-4 in blood + Piperacillin 96 ug/ml.

For the compound `CCN1CCN(C(=O)N[C@@H](C(=O)N[C@@H]2C(=O)N3[C@@H]2SC(C)(C)[C@@H]3C(=O)O)c2ccccc2)C(=O)C1=O` [Piperacillin], the “TVC T2” value in the test with S. aureus (setting [1]) amounted to 2; in the test with S. aureus (setting [2]), 0. Further, the “TVC T0” value stood at 98 in the test on S. aureus (setting [1]) and 15 in the test on S. aureus (setting [2]).

As for Sodium polyanethol sulfonate [SPS], the “FOLD INCR. 0-2 hr” value in the test with E. coli (WB SPS 0.01 %) turned out to be 3.39; with E. coli (WB SPS 0.02 %), 4.67; in the test with E. coli (WB SPS 0.04 %), 3.12; in the test on E. coli (WB SPS 0.06 %), 5.94; with E. coli (WB SPS 0.08 %), 1.52; with E. coli (WB SPS 0.1 %), 2.71. For the same compound, the TVC colonies in the test on E. coli (WB SPS 0.01 %, EC Time 2 hrs) is given as 498 colonies; in the test with E. coli (WB SPS 0.01 %, EC Time 4 hrs), “TNTC”; with E. coli (WB SPS 0.01 %, EC Time 6 hrs), “TNTC”; in the test on E. coli (WB SPS 0.01 %, EC Time 21 hrs), “LAWN”; with E. coli (WB SPS 0.01 %, EC Time ZERO) it was 147 colonies; with E. coli (WB SPS 0.02 %, EC Time 2 hrs) it was 448 colonies. Further, the TVC colonies entry in the test with E. coli (WB SPS 0.02 %, EC Time 4 hrs) was “TNTC”; with E. coli (WB SPS 0.02 %, EC Time 6 hrs), “TNTC”; in the test with E. coli (WB SPS 0.02 %, EC Time 21 hrs) it was “LAWN”; with E. coli (WB SPS 0.02 %, EC Time ZERO) it was 96 colonies; with E. coli (WB SPS 0.04 %, EC Time 2 hrs) it was 1106 colonies; in the test with E. coli (WB SPS 0.04 %, EC Time 4 hrs), “TNTC”. Further, the TVC colonies result is given as “TNTC” in the test with E. coli (WB SPS 0.04 %, EC Time 6 hrs); “LAWN” in the test with E. coli (WB SPS 0.04 %, EC Time 21 hrs); 354 colonies with E. coli (WB SPS 0.04 %, EC Time ZERO); 760 colonies in the test with E. coli (WB SPS 0.06 %, EC Time 2 hrs); “TNTC” in the test on E. coli (WB SPS 0.06 %, EC Time 4 hrs); “TNTC” in the test on E. coli (WB SPS 0.06 %, EC Time 6 hrs). Also, the TVC colonies result is “LAWN” in the test with E. coli (WB SPS 0.06 %, EC Time 21 hrs); 128 colonies with E. coli (WB SPS 0.06 %, EC Time ZERO); 491 colonies with E. coli (WB SPS 0.08 %, EC Time 2 hrs); “TNTC” in the test on E. coli (WB SPS 0.08 %, EC Time 4 hrs); “TNTC” with E. coli (WB SPS 0.08 %, EC Time 6 hrs); “LAWN” in the test with E. coli (WB SPS 0.08 %, EC Time 21 hrs). The TVC colonies in the test on E. coli (WB SPS 0.08 %, EC Time ZERO) is recorded as 322 colonies; in the test with E. coli (WB SPS 0.1 %, EC Time 2 hrs) it was 341 colonies; in the test with E. coli (WB SPS 0.1 %, EC Time 4 hrs) it was “TNTC”; in the test with E. coli (WB SPS 0.1 %, EC Time 6 hrs), “TNTC”; in the test with E. coli (WB SPS 0.1 %, EC Time 21 hrs), “LAWN”; in the test with E. coli (WB SPS 0.1 %, EC Time ZERO), 126 colonies.

For the origin of these results see patent publication US20240210394A1, “MICROORGANISM CAPTURE FROM ANTIMICROBIAL-CONTAINING SOLUTION” (MOMENTUM BIOSCIENCE LIMITED, priority 2019, published 2024).
